Measured values published in patent US4711898A, “4-quinolone derivatives having anti-inflammatory, anti-allergic, antitussive, expectorant and antithrombotic activity” (Nippon Shinyaku Co., Ltd., priority 1982, dated 1987).

What was measured:
[1] = system: passive cutaneous anaphylaxis (DNP-As homocytotropic antiserum); assay: passive cutaneous anaphylatic assay (PCA) in rats; assay type: in vivo, Wistar strain rats; settings: 10 mg/kg orally, one hour before antigen; for inhibition in vivo at 10 mg/kg: Rattus norvegicus, po, 1 h, read-out: PCA Inhibition Ratio %
Protocol: (§1) The compounds of the present invention have been evaluated for their anti-allergenic action by passive cutaneous anaphylatic assay (PCA) in rats and by measuring the anti-SRS-A action using ileus of guinea pigs.
(i) Antiserum abundant in homocytotropic antibody is prepared by the same method as Tada and Okumura did (cf. Journal of Immunology, vol. 106, page 1002, 1971). Thus, 1 mg (calculated as an amount of protein) of DNP-As (2,4-dinitrophenylcoupled ascaris extract) prepared by methods of Strejan and Campbell (Journal of Immunology, vol. 98, p. 893, 1967) and of Eisen (Journal of Amer. Chem. Soc., vol. 75, p 4593, 1953) and 1×10^10pertussis vaccine are administered to each paw of Wistar strain rats (180 to 200 grams body weights) by dividing the dose by four. Five days later, 0.5 mg of DNP-As is administered into muscle of back. Eight days later from the initial immunization, blood is taken from discending aorta under anesthetizing with ether, the resulting serum is stored at -80° and is melted before use.
(ii) Effect of tested compounds is investigated as follows:
Anti-serum obtained by th method (i) is diluted with physiological saline solution double by double successively and 0.05 ml of each diluted solution is administered into the back of Wistar strain rats (140 to 160 grams body weight) intradermally. After 72 hours, a solution of 2 mg (calculated as protein) of DNP-As and 2.5 mg of Evans Blue dissolved in 1 ml of physiological saline solution is administered intraveously at a dose of 5 ml/kg. After 30 minutes from the antigen solution administration, the animals are killed and the diameters of blue spots which appeared at the place where antiserum was administered were measured. The PCA test is conducted by the same method as already described using a diluted solutions of antiserum which always show 10 mm or more of spot diameters and the effect of the test compounds is judged. Thus antiserum diluted solutions are administered into two places in the back. Test compounds are administered orally at the dose of 10 mg/kg one hour before administration of the antigen solution. From the skin of reacted parts of killed animals, leaked or emitted dyestuff is extracted and the amount of the dyestuff is measured. The inhibition ratio is calculated by the following expression: [formula] in which A' is an amount of dyestuff in the group treated with the test compounds and A is that in the control group.

[2] = system: SRS-A (slow reacting substance of anaphylaxis) contraction of ileum; assay: Anti-SRS-A action using ileus of guinea pigs; assay type: cell-based, Hartley strain male guinea pigs; settings: 5 min, guinea pig ileum, SRS-A 20 units, compound five minutes before; for inhibition at 1 µM: Cavia porcellus, 1/1000 mM, read-out: 1/1000 mM SRS-A Inhibition Ratio %; for 1/1000 mM SRS-A Inhibition Ratio %: Na salt, 1 µM
Protocol: as §1
Anti-SRS-A action (An anti-acton against slow reacting substance of anaphylaxis).
Hartley strain male guinea pigs (300 to 350 grams body weight) are killed and 1.0 to 1.5 cm of ileum is immeidiately excised from ileocecal parts and is suspended in 10 ml of Tyrode solution (95% 02 -5% CO2 saturation) containing 10^-7 g/ml of atropine and 10^-6 g/ml of pyrilamine. SRS-A (20 units) (the amount of SRS-A showing the same contradiction as 5 ng of histamine is defined as 1 unit) prepared by using sensitized guinea pig lung is given to cause contraction there. Then antagonistic action of test compounds treated five minutes ago against the contraction is measured and recorded via isotonic transducer. [formula] in which A' is a height of contraction of SRS-A+test compound and A is that of SRS-A.

SMILES	inhibition in vivo at 10 mg/kg [1]	inhibition at 1 µM [2]	also measured
CCOc1ccccc1-c1cc(=O)c2cc(C(=O)O)ccc2[nH]1 [Example 59]	15.8%	24.6%	
CCCCCCOC(=O)c1cccc2c(=O)cc(-c3ccccc3Cl)[nH]c12 [Example 113]	10.5%	20.5%	
CC(C)COCCOC(=O)c1cccc2c(=O)cc(-c3ccccc3Cl)[nH]c12 [Example 127]	13.3%	25.4%	
COc1ccc(-c2cc(=O)c3cc(C(=O)O)ccc3[nH]2)c(OC)c1 [Example 65]	26.9%	27.3%	
Cc1ccccc1-c1cc(=O)c2cc(C(=O)O)ccc2[nH]1 [Example 43]			PCA Inhibition Ratio % ([1]; listed as 2-Methyl, Na salt): 24.8%; 1/1000 mM SRS-A Inhibition Ratio % ([2]; listed as 2-Methyl): 17.3%
O=C(O)c1cccc2c(=O)cc(-c3ccccc3)[nH]c12 [Example 82]			PCA Inhibition Ratio % ([1]; listed as H, Na salt): 10.0%; 1/1000 mM SRS-A Inhibition Ratio % ([2]; listed as H): 27.3%
C=CCc1c(-c2ccccc2)[nH]c2ccc(C(=O)OC)cc2c1=O [Example 11]	20.1%	37.5%	
CCOC(=O)c1cccc2c(=O)cc(-c3ccccc3F)[nH]c12 [2-Fluoro, Ethyl]	28.5%	33.3%	
N#CCOC(=O)c1cccc2c(=O)cc(-c3ccccc3Cl)[nH]c12 [Example 121]	54.4%	3.4%	
O=C(O)c1ccc(-c2cc(=O)c3cc(C(=O)O)ccc3[nH]2)cc1 [Example 69]	25.8%	27.9%	
COC(=O)c1ccc2c(c1)c(=O)cc(-c1ccccc1)n2C [Example 7, Methyl 1-methyl-2-phenyl-4-quinolone-6-carboxylate]	21.3%	100%	
O=C(O)c1ccc2[nH]c(-c3ccc(Cl)cc3Cl)cc(=O)c2c1 [Example 35]	39.4%	25.6%	
O=C(O)c1ccc2[nH]c(-c3ccccc3)cc(=O)c2c1 [Example 3, Sodium 2-phenyl-4-quinolone-6-carboxylate]	27.9%	85%	
Cc1ccc(-c2cc(=O)c3cc(C(=O)O)ccc3[nH]2)cc1 [Example 47]	17.3%	18.9%	
COC(=O)c1ccc2[nH]c(-c3ccccc3Br)cc(=O)c2c1 [Example 24]	23.4%	55.8%	
COc1ccc(-c2cc(=O)c3cccc(C(=O)OCCO)c3[nH]2)c(OC)c1 [Example 139]	18.4%	63.3%	
O=C(OCCOc1ccccc1)c1cccc2c(=O)cc(-c3ccccc3Cl)[nH]c12 [Example 119]	47%	73.4%	
CCn1c(-c2ccccc2)cc(=O)c2cc(C(=O)O)ccc21 [Example 14]	16.4%	28.9%	
Cn1c(-c2ccccc2)cc(=O)c2cc(C(=O)O)ccc21 [Example 8, 1-Methyl-2-phenyl-4-quinolone-6-carboxylic acid]	16.2%	22%	
COc1ccc(-c2cc(=O)c3cc(C(=O)O)ccc3[nH]2)cc1OC [Example 67]	17.4%	25%	
O=C(OCCCO)c1cccc2c(=O)cc(-c3ccccc3Cl)[nH]c12 [Example 115]	12.4%	27.4%	
COC(=O)c1ccc2[nH]c(-c3ccccc3OC(C)C)cc(=O)c2c1 [Example 60]	21.2%	58.8%	
CCCn1c(-c2ccccc2)cc(=O)c2cc(C(=O)O)ccc21 [Example 16]	23.4%	19.7%	
Cc1ccccc1-c1cc(=O)c2cccc(C(=O)OCCO)c2[nH]1 [Example 134]	10.8%	5.2%	
COC(=O)c1ccc2[nH]c(-c3cccs3)cc(=O)c2c1 [Example 78]	26.7%	23.3%	

SMILES	inhibition in vivo at 10 mg/kg [1]	inhibition at 1 µM [2]	also measured
Cc1c(-c2ccccc2)[nH]c2ccc(C(=O)O)cc2c1=O [Example 10]	22.4%	21%	
COc1ccc(-c2cc(=O)c3cccc(C(=O)OCCO)c3[nH]2)cc1 [Example 138]	12.7%	25.4%	
COC(=O)c1ccc2[nH]c(-c3ccccc3F)cc(=O)c2c1 [Example 26]	20.6%	38.5%	
C=CCn1c(-c2ccccc2)cc(=O)c2cc(C(=O)OC)ccc21 [Example 17]	20.4%	22.7%	
O=C(O)c1ccc2[nH]c(-c3cccc(C(F)(F)F)c3)cc(=O)c2c1 [Example 53]	22.4%	30%	
O=C(O)c1ccc2[nH]c(-c3ccco3)cc(=O)c2c1 [Example 77]	17.4%	21%	
O=C(O)c1cccc2c(=O)cc(-c3ccc(Cl)c(Cl)c3)[nH]c12 [Example 91]	22.7%	24.2%	
O=C(O)c1ccc2[nH]c(-c3ccncc3)cc(=O)c2c1 [Example 71]	25.6%	25%	
C=CCn1c(-c2ccccc2)cc(=O)c2cc(C(=O)O)ccc21 [Example 18]	26.5%	24.3%	
O=C(O)c1ccc2[nH]c(-c3ccccc3F)cc(=O)c2c1 [Example 27]	25.6%	23.4%	
COc1ccc(-c2cc(=O)c3cc(C(=O)O)ccc3[nH]2)cc1 [Example 63]	18.4%	23%	
CCCCCc1ccc(-c2cc(=O)c3cc(C(=O)OC)ccc3[nH]2)cc1 [Example 50]	19.4%	36%	
COC(=O)c1ccc2[nH]c(-c3ccc(Cl)c(Cl)c3)cc(=O)c2c1 [Example 37]	17.1%	24.3%	
COC(=O)c1ccc2[nH]c(-c3ccc(OC)c(OC)c3)cc(=O)c2c1 [Example 66]	25.4%	25.7%	
O=C(O)c1ccc2[nH]c(-c3cccs3)cc(=O)c2c1 [Example 79]	19.8%	19.5%	
CCn1c(-c2ccccc2)cc(=O)c2cc(C(=O)OC)ccc21 [Example 13]	18.9%	25.4%	
O=C(OCCOCCO)c1cccc2c(=O)cc(-c3ccccc3Cl)[nH]c12 [Example 128]	10.7%	25%	
CC(C)Oc1ccccc1-c1cc(=O)c2cc(C(=O)O)ccc2[nH]1 [Example 61]	20.1%	31.8%	
CCCCCCn1c(-c2ccccc2)cc(=O)c2cc(C(=O)OC)ccc21 [Example 19]	27%	27.5%	
COC(=O)c1ccc2[nH]c(-c3ccc(C)cc3)cc(=O)c2c1 [Example 46]	27.3%	19.8%	
O=C(O)c1cccc2c(=O)cc(-c3ccccc3)[nH]c12 [Example 81]		26.4%	PCA Inhibition Ratio % ([1]; listed as H, H): 35.3%
CCCOC(=O)c1cccc2c(=O)cc(-c3ccccc3Cl)[nH]c12 [Example 111]	2.4%	7.8%	
O=C(OCCO)c1cccc2c(=O)cc(-c3cccc(Cl)c3)[nH]c12 [Example 132]	18.6%	55.5%	
O=C(O)c1ccc2c(c1)C(=O)CC(c1ccccc1)=N2 [Example 2, 2-Phenyl-4-quinolone-6-carboxylic acid]	22.5%	23.9%	
